According to US20100069854A1, “Elastomeric Devices Containing Chlorhexidine/Fatty Acid Salts Made From Fatty Acids of 12 to 18 Carbons” (priority 2008, published 2010):
Entries after “also recorded” stand apart in the source; their conditions may differ.

Experiments:
[1] = Rate of release of chlorhexidine/fatty acid salts from coated polyurethane tubes into DI water; type: physicochemical; conditions: for Cumulative release of the chlorhexidine/fatty acid salts from the coated polyurethane tubes: 1 cm coated tube in DI water, 37° C.
Procedure: A solution of each respective chlorhexidine/fatty acid salt was prepared and used to infuse a sample of elastomeric material. To perform the test, individual samples, 8 cm pieces of polyurethane tube containing a colorant, were surface dip coated in respective solutions of the chlorhexidine/fatty acid salts. The solutions were prepared as follows: 8.6 g of Tecoflex (Noveon, Cleveland, Ohio) was dissolved in 174 g of Tetrahydrofuran and methanol. 5.88 g of chlorhexidine acetate, chlorhexidine laurate, chlorhexidine myristate, chlorhexidine palmitate and chlorhexidine stearate were individually dissolved into the polymer-solvent mixture. The samples were immersed into the solvent-polymer-salt mixture and then dried at room temperature, evaporating the solvent. A polymeric coating was produced on the surface of the tubes. The amounts of chlorhexidine/fatty acid salt adhered per cm of the tube was measured (Table 2) by exhaustively extracting the salt and measuring UV absorbance at 253 nm relative to controls: For each of the samples, the rate of release of chlorhexidine/fatty acid salts into an aqueous solution was determined. To perform the rate of release test, 1 cm from each of the coated polyurethane tubes, were submerged in DeIonized (DI) water and incubated at 37° C. for a period of 28 days to determine the rate of release of the salts from the respective 1 cm samples of coated polyurethane tubing. The water was collected and replaced with fresh water after approximately 2 hours. The water was again collected and replaced with fresh water after the first day and every seven days thereafter. The amount of chlorhexidine/fatty acid salt in the collected water was measured with an Agilent 8453 UV-Vis Diode Array Detector with a manual setup using a cuvette w/path length of 1 cm. Chlorhexidine absorbance was read at 253 nm and concentration was calculated via a calibration curve developed using standards of 1, 5, 10, 20, 30, 35, and 40 μg/mL chlorhexidine acetate in DI Water. The percentage of chlorhexidine/fatty acid salt released from the sample into an aqueous media (percent release) was calculated according to the following equation: Percent release=(cumulative release at that time period/initial content)*100.

[2] = tested on: Candida albicans ATCC 10231; test: Zone of inhibition assay with impregnated polyurethane foam discs; type: cell-based; conditions: for Zone of inhibition compared with the other salts (in words): impregnated polyurethane foam, after several daily transfers / over the 9 day assay
Procedure: To evaluate antimicrobial properties of polyurethane foam samples infused with the various chlorhexidine/fatty acid salts, a zone of inhibition assay was performed. In this assay, 1.4% (w/v) of chlorhexidine acetate, chlorhexidine caprate, chlorhexidine laurate, chlorhexidine myristate, chlorhexidine palmitate and chlorhexidine stearate solutions in methanol were prepared. A supply of 8 mm discs were punched out of a sheet of polyurethane foam (Rynel medical grade polyurethane foam) with biopsy punches (Miltex Kai). Several discs were placed in each of six 50 ml centrifuge tubes. Approximately 5 ml of each of the different methanol/chlorhexidine/fatty acid salt solutions was added to each respective tube. The discs were centrifuged for 5 minutes to remove any air bubbles and soaked for 1 hr to infuse the foam discs with the respective chlorhexidine/fatty acid salt. Infused discs were transferred to clean centrifuge tubes and vacuum dried at 25° C. for 24 hrs to remove any residual solvents. Initial concentrations of salts, impregnated into the punches, were determined by dissolving the impregnated foams and by high pressure liquid chromatography (HPLC) analysis using an Agilent Eclipse XDB-CN 3u 4.6×150 mm column with initial mobile phase=65% DI water/0.2% trifluoroacetic acid (TFA): 35% Acetonitrile/0.2% TFA. Chlorhexidine absorbance was read at 253 nm and concentration was calculated via a chlorhexidine calibration curve. […] To perform the zone of inhibition assay on the impregnated polyurethane foam discs, agar plates were prepared by mixing 11 g Mueller-Hinton cation-adjusted broth and 1.5 g agarose in 500 ml DI water. The agar was autoclaved for 15 minutes at 121° C., 15 psi. 10 ml of the still hot, liquid agar was pipetted onto petri dishes. The challenge organism, Candida albicans ATCC 10231, was cultivated in Trypticase soy broth, standard microbiological growth medium (TSB). Sterile cotton swabs were dipped into the undiluted culture and the plated agar was fully inoculated with swabs. The 8 mm polyurethane foam discs were transferred daily to a freshly inoculated agar for 9 days. The zone of inhibition (ZOI) was measured using calipers. Actual ZOI was measured by subtracting the diameter of the foam (when wet) from the zone measured and dividing by 2. The results are presented in Table 6, with a graphical representation of the ZOI in FIG. 2;

[3] = tested on: Pseudomonas aeruginosa ATCC 27853; test: Basic broth adherence assay on coated polyurethane tubes; type: cell-based
Procedure: The antimicrobial effectiveness of the coated samples was subjected to different durations of DI water extraction by basic broth adherence assay. For each chlorhexidine/fatty acid salt tested, 3 samples of coated tubing were prepared and assayed. To prepare the inoculum, a culture of Pseudomonas aeruginosa ATCC 27853 was used to challenge the coated polyurethane tubes and controls. The negative control used was a length of uncoated polyurethane tube. The challenge microorganism suspension was prepared as follows: approximately three colonies were removed from a secondary working culture plated on Trypticase Soy Agar (TSA) (BD-Falcon) with 5% sheep's blood and added to 10 ml of Trypticase Soy Broth (TSB). The vial was vortexed for approximately 30 seconds and incubated for 4 hours at 37° C. at 100 rpm. Following incubation, the vial was removed and vortexed. The optical density of the organism suspension was read. The inoculum was then diluted in TSB to a concentration of 5×10^4 colony forming units per milliliter (CFU/mL). This concentration was confirmed by the Miles and Misra drop count method.
The basic broth adherence assay was performed in a 96 well micro titer plate. To each well of the micro titer plate containing either a test article or a control, 900 μl of TSB was added. To this, 100 μl of the adjusted inoculum was added (Note: Due to the 1/10 dilution per well, the starting inoculum concentration of each organism was […] for Pseudomonas aeruginosa). The micro titer plates were then sealed via parafilm® around the edges and wrapped in foil to avoid evaporation of liquid and light contact with the samples. The plates were then placed inside a shaker incubator set at 37° C. and 100 rpm for 24 hours. Incubation at 37° C. then continued until the elapse of 7 days, 14 days, and 21 days, respectively, for each of the 3 samples prepared for each chlorhexidine/fatty acid salt.
At the completion of the respective incubation periods, the samples were rinsed, sonicated, the sonicate was plated and adherence was evaluated. More particularly, following incubation, all samples and controls were dip-rinsed twice in phosphate buffered saline (PBS) to remove the surrounding media. After rinsing, test articles were sonicated in micro titer plate wells containing 1 mL of Dey-Engley (DE) neutralizing broth (Difco). The sonication liquid was then serially diluted, and plated onto the surface of DE neutralizing agar. Plates were incubated at 37° C. for 24 to 48 hours and colonies were counted. Recovery counts were recorded as CFU/mL.

[4] = Day 1, daily transfer to fresh agar
[5] = Day 2, daily transfer to fresh agar
[6] = Day 3, daily transfer to fresh agar
[7] = Day 4, daily transfer to fresh agar
[8] = Day 7, daily transfer to fresh agar
[9] = Day 8, daily transfer to fresh agar
[10] = Day 9, daily transfer to fresh agar

| SMILES | ZOI produced by impregnated polyurethane foam punches against Candida albicans [2, 4] [mm] | ZOI produced by impregnated polyurethane foam punches against Candida albicans [2, 5] [mm] | ZOI produced by impregnated polyurethane foam punches against Candida albicans [2, 6] [mm] | ZOI produced by impregnated polyurethane foam punches against Candida albicans [2, 7] [mm] | ZOI produced by impregnated polyurethane foam punches against Candida albicans [2, 8] [mm] | ZOI produced by impregnated polyurethane foam punches against Candida albicans [2, 9] [mm] | ZOI produced by impregnated polyurethane foam punches against Candida albicans [2, 10] [mm] | Zone of inhibition compared with the other salts (in words) [2] | Cumulative release of the chlorhexidine/fatty acid salts from the coated polyurethane tubes ([1]; Day 1) [g] | Cumulative release of the chlorhexidine/fatty acid salts from the coated polyurethane tubes ([1]; Day 7) [g] | Cumulative release of the chlorhexidine/fatty acid salts from the coated polyurethane tubes ([1]; Day 14) [g] | Cumulative release of the chlorhexidine/fatty acid salts from the coated polyurethane tubes ([1]; Day 21) [g] | Cumulative release of the chlorhexidine/fatty acid salts from the coated polyurethane tubes ([1]; Day 28) [g] | Log10 reduction of adhered Pseudomonas aeruginosa onto the surface of coated polyurethane tubes ([3]; 7 days) | Log10 reduction of adhered Pseudomonas aeruginosa onto the surface of coated polyurethane tubes ([3]; 21 days) | other results |
| --- | --- | --- | --- | --- | --- | --- | --- | --- | --- | --- | --- | --- | --- | --- | --- | --- |
| CCCCCCCCCC(=O)O.CCCCCCCCCC(=O)O.N=C(NCCCCCCNC(=N)NC(=N)Nc1ccc(Cl)cc1)NC(=N)Nc1ccc(Cl)cc1 [Chlorhexidine Caprate, chlorhexidine caprate] | 14 | 18 | 18 | 10 | 7 | 9 | 7 | zones of inhibition that were smaller |  |  |  |  |  |  |  | Percent release of the initial salt concentration from the coated sample ([1]; after approximately 7 days (FIG. 1)): 70% |
| CCCCCCCCCCCCCC(=O)O.CCCCCCCCCCCCCC(=O)O.N=C(NCCCCCCNC(=N)NC(=N)Nc1ccc(Cl)cc1)NC(=N)Nc1ccc(Cl)cc1 [Chlorhexidine Myristate, chlorhexidine dimyristate] | 27 | 34 | 32 | 18 | 16 | 16 | 18 |  | 40 | 98 | 133 | 147 | 151 | 7 | 7 | Release from the coated sample over the test (in words) ([1]; FIG. 1, 28 days in DI water): continually released at an appreciable rate throughout the duration of the test; Amount released from the coated sample over the 7 day period ([1]; from 21 to 28 days): 4 µg |
| CCCCCCCCCCCCCCCCCC(=O)O.CCCCCCCCCCCCCCCCCC(=O)O.N=C(NCCCCCCNC(=N)NC(=N)Nc1ccc(Cl)cc1)NC(=N)Nc1ccc(Cl)cc1 [Chlorhexidine Stearate, chlorhexidine distearate] | 11 | 17 | 16 | 13 | 14 | 8 | 8 | zones of inhibition that were smaller | 30 | 76 | 87 | 95 | 99 | 0 | 0 | Percent release of the initial salt concentration from the coated sample ([1]; after 28 days (FIG. 1)): approximately 40%; Log10 reduction of adhered Pseudomonas aeruginosa onto the surface of coated polyurethane tubes ([3]; 14 days): 0; Inhibition of adherence / antimicrobial effect against Pseudomonas aeruginosa (in words) ([3]; coated polyurethane tubes compared to uncoated control): did not provide an antimicrobial effect beyond the first day; also recorded: did not inhibit adherence of the challenge organism |
